{"source": "patent US12465650B2", "about": "“Methods and compositions for targeting cancer cells in metastases” (THE BOARD OF REGENTS OF THE UNIVERSITY OF TEXAS SYSTEM, priority 2021, dated 2025)", "key": {"[1]": {"test_system": "Murine 3T3L1 preadipocytes", "assay": "anti-phage immunofluorescence, uptake by negative control cells", "format": "cell-based", "description": "(§1) Immunofluorescence for tissue and cell analysis: Immunofluorescence on cells and formalin-fixed paraffin-embedded tissue sections was performed as described Zhang et al., 2012). Primary antibodies used: rabbit anti-Fd bacteriophage (Sigma Aldrich, 1:500), rabbit anti-Asp175-cleaved Caspase3 (Cell Signaling Technology, 1:100), mouse anti-E Cadherin and mouse anti-N Cadherin (BD Biosciences, 1:100). Secondary antibodies used: donkey Alexa 488-conjugated IgG (Invitrogen, 1:300) and Cy3-conjugated IgG (Jackson ImmunoResearch, 1:300). Biotinylated peptide internalization was visualized with Cy3-conjugated streptavidin IgG (Thermo Fischer Scientific, 1:50). Nuclei were stained with Hoechst 33258 (Invitrogen, 1:2000). Tissue and cell images were acquired with a Nikon Eclipse TE2000E Widefield Fluorescence Microscope (Nikon Instruments Inc.). Image quantification included 5 random microscopic fields of view at 20× magnification. Images were processed and analyzed with ImageJ software (NIH and University of Wisconsin). Cadherin co-localization was quantified based on the previously described ImageJ software object based-approach (JACoP) methodology based on the Mander's coefficient (Bolte and Cordelieres, 2006).\n(§2) Murine 3T3L1 preadipocytes were used as a negative control and uptake was not observed for BLMP6-phage (FIG. 1C)."}, "[2]": {"test_system": "MDA-MB-231 human TNBC cells", "assay": "phage-peptide clone binding to human TNBC cells", "format": "cell-based", "conditions": "phage-displayed", "source_text": "as §2"}, "[3]": {"test_system": "4T1.2 spontaneous metastases", "assay": "in vivo homing of individual phage-peptide clones, 4T1.2 model", "set-up": "species or system Balb/c mice", "conditions": "mouse", "description": "(§3) Animal experiments: Rodent studies were authorized by the Institutional Animal Care and Use Committees of UTHealth. Spontaneous cancer progression was modelled by injecting 2×10^4 4 T1.2 (mCherry+ Luciferase+) cells into the mammary fat pad of 10-week-old female Balb/c mice (Jackson Laboratory) with a 31-gauge needle. Primary tumor volume was measured weekly with calipers and calculated using the (length×width^2)/2 formula. At a tumor volume of ˜200 mm^3, mice were randomized into two cohorts and administered either vehicle (1×PBS) or cisplatin (Tocris Biosciences; 2.5 mg/kg) retro-orbitally once a week for three weeks. Metastatic progression was monitored with bioluminescence imaging. For experimental metastasis modeling in C57BL/6 mice (Jackson Laboratory), 1×10^5 B16F10 cells were intravenously injected into the tail vein and mice were used after 2 weeks. In both mice models, pulmonary metastases were observed 3 weeks post implantation. The screen for metastasis-homing peptides was performed using a 50:50 mixture of phage cyclic peptide libraries CX7C and CX8C (C: cysteine; X: any amino acid residue) provided by Erkki Koivunen (Arap et al., 2002). For every bio-panning round, a mouse with metastases (between weeks 3 and 4) was intravenously injected with 10^10 transducing units (TU) of the library. After 3 hours of circulation, the heart was perfused with 10 ml phosphate buffered saline (PBS). […] Selected phage were amplified through K91 E. coli infection and quantified via TU counting. For each round, clone enrichment was quantified based on recovery frequency among 96 phage peptide-coding inserts sequenced from PCR-amplified phage DNA (Kolonin et al., 2004). […] Radioactive uptake was measured using a Cobra II automated gamma counter (Packard) and expressed as percentage of the injected dose per gram tissue (% ID/g tissue).\nImmunofluorescence for tissue and cell analysis: Immunofluorescence on cells and formalin-fixed paraffin-embedded tissue sections was performed as described Zhang et al., 2012). […] Tissue and cell images were acquired with a Nikon Eclipse TE2000E Widefield Fluorescence Microscope (Nikon Instruments Inc.). Image quantification included 5 random microscopic fields of view at 20× magnification. Images were processed and analyzed with ImageJ software (NIH and University of Wisconsin). Cadherin co-localization was quantified based on the previously described ImageJ software object based-approach (JACoP) methodology based on the Mander's coefficient (Bolte and Cordelieres, 2006).\n(§4) Tissue biodistribution was analyzed by immunofluorescence using phage-specific antibodies. […]"}, "[4]": {"assay": "phage localization in cancer-free mice", "conditions": "mouse, in vivo", "description": "as §1, §4"}, "[5]": {"test_system": "mCherry-positive metastatic tumor cells (4T1.2)", "assay": "in vivo bio-panning of CX7C/CX8C phage-peptide library for lung metastasis-homing peptides", "set-up": "species or system Balb/c mice", "conditions": "p≤0.0001", "description": "as §3, with “implantation.” for “implantation. The screen for metastasis-homing peptides was performed using a 50:50 mixture of phage cyclic peptide libraries CX7C and CX8C (C: cysteine; X: any amino acid residue) provided by Erkki Koivunen (Arap et al., 2002). For every bio-panning round, a mouse with metastases (between weeks 3 and 4) was intravenously injected with 10^10 transducing units (TU) of the library. After 3 hours of circulation, the heart was perfused with 10 ml phosphate buffered saline (PBS).”, “tissue). […]” for “tissue).”"}, "[6]": {"test_system": "4T1, B16F10 and MDA-MB-231 cancer cells that expressed N-cadherin but not E-cadherin", "assay": "co-localization with cadherins in cultured cell lines", "format": "cell-based, murine, human", "conditions": "reduced E-Cadherin expression", "description": "Cell lines and primary cell culture: All cell lines were cultured in DMEM media (Hyclone) supplemented with penicillin-streptomycin (Gibco) and 10% fetal bovine serum (Atlas Biologicals). B16F10, MDA-MB-231, and 3T3L1 cell lines were from ATCC. 4T1.2 (4T1) cells expressing mCherry and Luciferase were a gift from S. Mani. Cisplatin-resistant 4T1.2 (4T1.2-CTX) cells were generated after treatment with cisplatin (Tocris Biosciences, 180 ng/mL).\nas §1, with “Secondary antibodies used: donkey Alexa 488-conjugated IgG (Invitrogen, 1:300) and Cy3-conjugated IgG (Jackson ImmunoResearch, 1:300). Biotinylated peptide internalization was visualized with Cy3-conjugated streptavidin IgG (Thermo Fischer Scientific, 1:50). Nuclei were stained with Hoechst 33258 (Invitrogen, 1:2000).” left out, “2006). […]” for “2006).”"}, "[7]": {"test_system": "4T1, B16F10 and MDA-MB-231 tumor cell lines", "assay": "trypan blue exclusion assay, tumor cell lines", "format": "cell-based, murine, human", "conditions": "0.1 mM", "description": "Peptides: The exemplary Hunter-killer (HK) peptides HK-BLMP5 and HK-BLMP6 were generated as “all-D-amino acid” cysteine-cyclized peptides (Celtek Bioscience). The proteolysis-resistant peptides were synthesized as acetate salts with an amino-hexanoic acid linker (NH—(CH2)5—CO) conjugating the BLMP and the apoptotic moiety KLAKLAKKLAKLAK (KLAKLAK2): SEQ ID NO:13. Following chromatographic purification, peptides were dissolved in PBS into 10 mM aliquots and stored frozen until further use. For the homing/internalization assay, peptides were biotin-labelled using the Sulfo-NHS-LC-Biotin Kit (APExBIO). Cells were plated in 24 well plates (1×10^5 cells/well), treated. Following treatment with either HK-BLMP6 (0.1 mM) or HK-BLMP5 (0.3 mM) in 0.5 ml serum free culture media for 8 hours, cells were stained with 0.4% Trypan Blue solution (MP Biomedicals) (Daquinag et al., 2016). For radioactive studies, 1,4,7,10-[…]-N′,N″,N′″,N″″-tetra-acetic acid (DOTA) t-Bu ester was purchased from Macrocyclics (Dallas, TX) and peptides were synthesized by Bachem Americas (Torrance, CA). DOTA-peptide conjugation was performed on solid-phase using previously described protocols (Azhdarinia et al., 2011). Radiolabeling with ^67GaCl3 and HPLC determination of purity were performed according to published procedures (Hernandez Vargas et al., 2019). […]"}}, "note": "Bridge positions count the residues as written; N and C are the ends. Ends that are not written are not given here."}
{"sequence": "CEGPMYAKC (disulfide 1-9 (inferred)) [BLMP3]", "values": [{"measurement": "non-specific uptake by 3T3L1 cells compared to phage-displayed BLMP6", "setting": "[1]", "value": "higher non-specific uptake"}]}
{"sequence": "CGVLPYSLC (disulfide 1-9 (inferred)) [BLMP1]", "values": [{"measurement": "non-specific uptake by 3T3L1 cells compared to phage-displayed BLMP6", "setting": "[1]", "value": "higher non-specific uptake"}]}
{"sequence": "CHLSFSTAC (disulfide 1-9 (inferred)) [BLMP4]", "values": [{"measurement": "non-specific uptake by 3T3L1 cells compared to phage-displayed BLMP6", "setting": "[1]", "value": "higher non-specific uptake"}]}
{"sequence": "CLRHSSKIC (disulfide 1-9 (inferred)) [BLMP5]", "values": [{"measurement": "binding to MDA-MB-231 cells", "setting": "[2]", "value": "exhibited binding"}, {"measurement": "non-specific uptake by 3T3L1 cells compared to phage-displayed BLMP6", "setting": "[1]", "value": "higher non-specific uptake"}, {"measurement": "distribution within primary 4T1.2 tumor", "setting": "[3]", "value": "dispersed throughout the tumor"}, {"measurement": "localization within macro-metastases", "setting": "[3]", "value": "localized predominantly along the invasive edges"}, {"measurement": "localization to lungs in cancer-free mice", "setting": "[4]", "value": "lack of BLMP-phage localization to lungs"}, {"measurement": "enrichment in the last round of bio-panning", "setting": "[5]", "value": "most significant enrichment"}]}
{"sequence": "CRAGVGRGC (disulfide 1-9 (inferred)) [BLMP6]", "values": [{"measurement": "binding to MDA-MB-231 cells", "setting": "[2]", "value": "exhibited binding"}, {"measurement": "distribution within primary 4T1.2 tumor", "setting": "[3]", "value": "observed selectively in a sub-population of cells associated with the vasculature"}, {"measurement": "localization within macro-metastases", "setting": "[3]", "value": "abundant throughout"}, {"measurement": "binding to cisplatin-resistant 4T1.2 cells", "setting": "[6]", "value": "maintaining BLMP6 binding"}, {"measurement": "localization to lungs in cancer-free mice", "setting": "[4]", "value": "lack of BLMP-phage localization to lungs"}, {"measurement": "enrichment in the last round of bio-panning", "setting": "[5]", "value": "most significant enrichment"}]}
{"sequence": "CSGVGIASC (disulfide 1-9 (inferred)) [BLMP2]", "values": [{"measurement": "non-specific uptake by 3T3L1 cells compared to phage-displayed BLMP6", "setting": "[1]", "value": "higher non-specific uptake"}]}
{"sequence": "KLAKLAKKLAKLAK [KLAKLAK2, untargeted apoptosis-inducing moiety]", "values": [{"measurement": "cell death (trypan blue)", "setting": "[7]", "value": "No cancer cell death"}]}
